Measured values: patent publication US20080242542A1, “INDANILINE DYE, THERMAL TRANSFER RECORDING INK SHEET, THERMAL TRANSFER RECORDING METHOD, COLOR TONER, INKJET INK, AND COLOR FILTER” (FUJIFILM Corporation, priority 2007, published 2008)

assay: Light fastness of recorded image under Xe light; format: physicochemical; settings: Xe light (17000 lux) for 7 days; retention of reflection density 1.0
Method: Next, the recorded samples were exposed to an Xe light (17000 lux) for 7 days, and rested for the light stability (light fastness) of the recorded images. After the exposure, the status A reflection density of the part of each sample having an original status A reflection density of 1.0 before the exposure was measured, and the retention (by percentage) to the reflection density of 1.0 after exposure to that before exposure indicates the image stability. With the retention percentage, the samples were ranked in three, A (from 80% to less than 100%), B (from 60% to less than 80%) , C (less than 60%).

Row | Light Fastness | SMILES
1 | A (A (from 80% to less than 100%)) | CCN(CC)c1ccc(N=C2C=C(NC(C)=O)C(=O)C(Cl)=C2C)c(C)c1 [Comparative Dye 4]
2 | A (A (from 80% to less than 100%)) | CCN(CC)c1ccc(N=C2C=C(NC(=O)c3ccccc3)C(=O)C(Cl)=C2C)c(C)c1 [Comparative Dye 5]
3 | A (A (from 80% to less than 100%)) | CCN(CC)c1ccc(N=C2C=C(NC(C)=O)C(=O)C(Cl)=C2C)cc1 [Comparative Dye 1]
4 | B (B (from 60% to less than 80%)) | CCN(CC)c1ccc(N=C2C=C(NC(C)=O)C(=O)C=C2C)c(C)c1 [Comparative Dye 3]
5 | A (A (from 80% to less than 100%)) | CCC(=O)NC1=CC(=Nc2ccc(N(CC)CC)cc2)C(C)=C(Cl)C1=O [Compound (1)]

assay: Absorption spectrometry in ethyl acetate solution; format: physicochemical; settings: 1×10^−6 mol/L, optical path length 10 mm
Method: The thus-obtained compounds (1) to (4) were analyzed for absorption spectrometry in an ethyl acetate solution (concentration: 1×10^−6 mol/L, optical path length; 10 mm). The data of ^1H NMR spectrometry (in heavy chloroform) and MS spectrometry of the obtained compounds (1) to (4) are shown in Table 1 below.

Row | Maximum Absorption Wavelength [nm] | SMILES
6 | 626 | CCC(=O)NC1=CC(=Nc2ccc(N(CC)CC)cc2)C(C)=C(Cl)C1=O [Compound (1)]
